Literature values in patent US20110165241A1, “BAZEDOXIFENE FORMULATIONS WITH ANTIOXIDANTS” (Wyeth LLC, priority 2009, published 2011).

Experiments:
[1] = tested on: ovariectomized rat model of osteopenia; conditions: in vivo
[2] = tested on: uterine response; conditions: in vivo
[3] = tested on: MCF-7 cell line (human breast cancer cell line)

For `Cc1c(-c2ccc(O)cc2)n(Cc2ccc(OCCN3CCCCCC3)cc2)c2ccc(O)cc12` [bazedoxifene, 1-[4-(2-azepan-1-yl-ethoxy)-benzyl]-2-(4-hydroxy-phenyl)-3-methyl-1H-indol-5-ol], the “effect on bone loss and cholesterol” value [1] is listed as “estrogen agonist-like effect in preventing bone loss and reducing cholesterol”, the “stimulation of uterine response” value [2] is listed as “little or no stimulation of uterine response” and the “estrogen receptor activity in MCF-7 cells” value [3] is listed as “behaves as an estrogen antagonist”.
